Data: patent publication US20220388964A1 (HiberCell, Inc., priority 2019, published 2022)

biological target: GCN2 (Homo sapiens, UniProt Q9P2K8); test: TR-FRET biochemical assay for inhibition of GCN2 (Example 106, for Example 1-4BB); settings: Table 8
Sequence (Q9P2K8 whole entry): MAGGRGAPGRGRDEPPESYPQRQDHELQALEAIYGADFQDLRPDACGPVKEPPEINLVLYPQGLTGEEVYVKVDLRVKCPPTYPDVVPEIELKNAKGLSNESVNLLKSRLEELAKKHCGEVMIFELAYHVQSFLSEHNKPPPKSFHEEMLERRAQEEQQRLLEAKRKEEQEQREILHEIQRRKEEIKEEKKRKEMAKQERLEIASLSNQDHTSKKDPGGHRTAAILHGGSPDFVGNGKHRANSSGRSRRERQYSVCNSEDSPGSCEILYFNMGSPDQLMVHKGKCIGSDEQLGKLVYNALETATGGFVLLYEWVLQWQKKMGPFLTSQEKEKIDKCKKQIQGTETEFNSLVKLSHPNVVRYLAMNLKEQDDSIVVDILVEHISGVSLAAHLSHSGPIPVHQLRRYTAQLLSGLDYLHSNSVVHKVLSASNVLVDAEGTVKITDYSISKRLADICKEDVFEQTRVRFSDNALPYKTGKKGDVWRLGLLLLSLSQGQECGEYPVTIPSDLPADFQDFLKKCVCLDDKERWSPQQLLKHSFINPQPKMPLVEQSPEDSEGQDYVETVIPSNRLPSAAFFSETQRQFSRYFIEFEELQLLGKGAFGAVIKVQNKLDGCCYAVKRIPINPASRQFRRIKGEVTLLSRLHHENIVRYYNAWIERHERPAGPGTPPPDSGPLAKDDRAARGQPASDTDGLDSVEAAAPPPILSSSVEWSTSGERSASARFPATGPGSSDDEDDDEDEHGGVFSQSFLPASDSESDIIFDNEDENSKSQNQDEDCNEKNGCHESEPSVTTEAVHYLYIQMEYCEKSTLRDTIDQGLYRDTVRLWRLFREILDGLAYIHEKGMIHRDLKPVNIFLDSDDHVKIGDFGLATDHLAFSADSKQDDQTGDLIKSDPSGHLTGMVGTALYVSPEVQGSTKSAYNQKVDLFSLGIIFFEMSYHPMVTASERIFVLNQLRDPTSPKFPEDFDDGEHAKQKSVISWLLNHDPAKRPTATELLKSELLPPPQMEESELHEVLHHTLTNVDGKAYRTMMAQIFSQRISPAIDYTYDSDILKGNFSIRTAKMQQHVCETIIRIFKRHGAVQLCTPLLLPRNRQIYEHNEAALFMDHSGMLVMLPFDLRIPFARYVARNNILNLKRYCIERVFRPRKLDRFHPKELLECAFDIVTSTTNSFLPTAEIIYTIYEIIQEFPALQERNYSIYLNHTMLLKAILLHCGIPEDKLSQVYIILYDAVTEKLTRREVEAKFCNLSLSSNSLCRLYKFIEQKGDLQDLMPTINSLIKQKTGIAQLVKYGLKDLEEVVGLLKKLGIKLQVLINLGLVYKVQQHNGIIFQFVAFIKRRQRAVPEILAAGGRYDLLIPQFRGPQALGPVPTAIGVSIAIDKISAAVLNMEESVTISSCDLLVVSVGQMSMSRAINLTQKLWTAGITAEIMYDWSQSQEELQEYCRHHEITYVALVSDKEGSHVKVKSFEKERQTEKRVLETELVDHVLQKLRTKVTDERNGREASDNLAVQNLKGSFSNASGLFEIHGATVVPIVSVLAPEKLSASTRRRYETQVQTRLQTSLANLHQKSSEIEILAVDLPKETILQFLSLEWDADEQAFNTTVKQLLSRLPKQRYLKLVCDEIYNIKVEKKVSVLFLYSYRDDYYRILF

SMILES	IC50 [nM]
Cc1ccc(S(=O)(=O)Nc2ccc(F)c(-c3ccc4c(-c5ncc[nH]5)n[nH]c4c3F)c2F)cc1 [Example 1, N-(2,4-difluoro-3-(7-fluoro-3-(1H-imidazol-2-yl)-1H-indazol-6-yl)phenyl)-4-methylbenzenesulfonamide]	500 to 2500
COc1ncc(Cl)cc1S(=O)(=O)Nc1ccc(F)c(-c2ccc3c(C(=O)N(C)C)n[nH]c3c2F)c1F [Example 2AS, 6-(3-((5-chloro-2-methoxy-pyridine)-3-sulfonamido)-2,6-difluorophenyl)-7-fluoro-N,N-dimethyl-1H-indazole-3-carboxamide]	500 to 2500
O=S(=O)(Nc1ccc(F)c(-c2ccc3c(-c4ncc[nH]4)n[nH]c3c2F)c1F)c1cccc(CO)c1 [Example 3, N-(2,4-Difluoro-3-(7-fluoro-3-(1H-imidazol-2-yl)-1H-indazol-6-yl)phenyl)-3-(hydroxymethyl)benzenesulfonamide]	< 500
O=S(=O)(Nc1ccc(F)c(-c2ccc3c(-c4ncc[nH]4)n[nH]c3c2F)c1F)c1cccnc1Cl [Example 2BM, 2-chloro-N-(2,4-difluoro-3-(7-fluoro-3-(1H-imidazol-2-yl)-1H-indazol-6-yl)phenyl)-pyridine-3-sulfonamide]	< 500
COc1ncc(Cl)cc1S(=O)(=O)Nc1cc(C)nc(-c2ccc3c(-c4ncc[nH]4)n[nH]c3c2F)c1F [Example 2AO, 5-chloro-N-(3-fluoro-2-(7-fluoro-3-(1H-imidazol-2-yl)-1H-indazol-6-yl)-6-methyl-pyridin-4-yl)-2-methoxy-pyridine-3-sulfonamide]	2500 to 10000
COC(=O)c1n[nH]c2c(F)c(-c3c(F)ccc(NS(=O)(=O)c4cc(Cl)cnc4OC)c3F)ccc12 [Example 4, Methyl 6-(3-((5-Chloro-2-methoxypyridine)-3-sulfonamido)-2,6-difluorophenyl)-7-fluoro-1H-indazole-3-carboxylate]	< 500
O=S(=O)(Nc1ccc(F)c(-c2ccc3c(-c4ncc[nH]4)n[nH]c3c2F)c1F)c1cccc(F)c1F [Example 2AG, N-(2,4-difluoro-3-(7-fluoro-3-(1H-imidazol-2-yl)-1H-indazol-6-yl)phenyl)-2,3-difluorobenzenesulfonamide]	< 500
Cc1ccc(C)c(S(=O)(=O)Nc2ccc(F)c(-c3ccc4c(-c5ncc[nH]5)n[nH]c4c3F)c2F)c1 [Example 2BI, N-(2,4-difluoro-3-(7-fluoro-3-(1H-imidazol-2-yl)-1H-indazol-6-yl)phenyl)-2,5-dimethylbenzenesulfonamide]	< 500
COc1cccc(S(=O)(=O)Nc2ccc(F)c(-c3ccc4c(-c5ncc[nH]5)n[nH]c4c3F)c2F)c1F [Example 2AP, N-(2,4-difluoro-3-(7-fluoro-3-(1H-imidazol-2-yl)-1H-indazol-6-yl)phenyl)-2-fluoro-3-methoxybenzene-sulfonamide]	< 500
COc1ncc(Cl)cc1S(=O)(=O)Nc1ncnc(-c2ccc3c(-c4ncc[nH]4)n[nH]c3c2F)c1F [Example 2AK, 5-chloro-N-(5-fluoro-6-(7-fluoro-3-(1H-imidazol-2-yl)-1H-indazol-6-yl)pyrimidin-4-yl)-2-methoxypyridine-3-sulfonamide]	< 500
COc1ncc(Cl)cc1S(=O)(=O)Nc1ccc(F)c(-c2ccc3c(-c4ccccn4)n[nH]c3c2F)c1F [Example 2CD, 5-chloro-N-(2,4-difluoro-3-(7-fluoro-3-(pyridin-2-yl)-1H-indazol-6-yl)phenyl)-2-methoxypyridine-3-sulfonamide]	500 to 2500
Cc1ncc(Cl)cc1S(=O)(=O)Nc1ccc(F)c(-c2ccc3c(-c4ncc[nH]4)n[nH]c3c2F)c1F [Example 2CM, 5-chloro-N-(2,4-difluoro-3-(7-fluoro-3-(1H-imidazol-2-yl)-1H-indazol-6-yl)phenyl)-2-methylpyridine-3-sulfonamide]	< 500
COc1ncc(Cl)cc1S(=O)(=O)Nc1ccc(F)c(-c2ccc3c(NC(C)=O)n[nH]c3c2F)c1F [Example 8, N-(6-(3-((5-Chloro-2-methoxypyridine)-3-sulfonamido)-2,6-difluorophenyl)-7-fluoro-1H-indazol-3-yl)acetamide]	500 to 2500
O=S(=O)(Nc1ccc(F)c(-c2ccc3c(-c4ncc[nH]4)n[nH]c3c2F)c1F)c1cccc(Cl)c1F [Example 2BB, 3-chloro-N-(2,4-difluoro-3-(7-fluoro-3-(1H-imidazol-2-yl)-1H-indazol-6-yl)phenyl)-2-fluorobenzenesulfonamide]	< 500
COc1ncccc1S(=O)(=O)Nc1ccc(F)c(-c2ccc3c(-c4ncc[nH]4)n[nH]c3c2F)c1F [Example 2U, N-(2,4-difluoro-3-(7-fluoro-3-(1H-imidazol-2-yl)-1H-indazol-6-yl)phenyl)-2-methoxy-pyridine-3-sulfonamide]	< 500
COc1cccc(S(=O)(=O)Nc2ccc(F)c(-c3ccc4c(-c5ncc[nH]5)n[nH]c4c3F)c2F)c1 [Example 2F, N-(2,4-difluoro-3-(7-fluoro-3-(1H-imidazol-2-yl)-1H-indazol-6-yl)phenyl)-3-methoxy-benzene-sulfonamide]	< 500

same assay, conditions: Table 9

SMILES	IC50 [nM]
COc1ccc(NS(=O)(=O)c2cc(F)cnc2OC)c(F)c1-c1ccc2c(C(=O)NCCCO)n[nH]c2c1F [Example 25, 7-Fluoro-6-(2-fluoro-3-((5-fluoro-2-methoxypyridine)-3-sulfonamido)-6-methoxyphenyl)-N-(3-hydroxypropyl)-1H-indazole-3-carboxamide]	2500 to 10000
Cc1ccc(F)cc1S(=O)(=O)Nc1ncc(F)c(-c2ccc3c(-c4ncc[nH]4)n[nH]c3c2F)c1F [Example 30, N-(3,5-Difluoro-4-(7-fluoro-3-(1H-imidazol-2-yl)-1H-indazol-6-yl)pyridin-2-yl)-5-fluoro-2-methylbenzenesulfonamide]	< 500
COc1ncc(F)cc1S(=O)(=O)Nc1ncc(F)c(-c2ccc3c(-c4ncc[nH]4)n[nH]c3c2F)c1F [Example 28, N-(3,5-Difluoro-4-(7-fluoro-3-(1H-imidazol-2-yl)-1H-indazol-6-yl)pyridin-2-yl)-5-fluoro-2-methoxypyridine-3-sulfonamide]	< 500

The next lines start with the values.

IC50 [nM]	SMILES
< 500	CC1CCc2c1cc(F)cc2S(=O)(=O)Nc1ccc(F)c(-c2ccc3c(-c4ncc[nH]4)n[nH]c3c2F)c1F (stereo not shown) [Example 4AQ]
< 500	O=C1CCc2c1cc(F)cc2S(=O)(=O)Nc1ccc(F)c(-c2ccc3c(C(=O)NCCCO)n[nH]c3c2F)c1F [Example 4U]
< 500	NC(=O)c1n[nH]c2c(F)c(-c3c(F)ccc(NS(=O)(=O)c4cc(F)cc(CO)c4Cl)c3F)ccc12 [Example 4AB]
2500 to 10000	COc1ncccc1S(=O)(=O)Nc1nccc(-c2ccc3c(-c4ncc[nH]4)n[nH]c3c2F)c1C#N [Example 3J, N-(3-cyano-4-(7-fluoro-3-(1H-imidazol-2-yl)-1H-indazol-6-yl)pyridin-2-yl)-2-methoxypyridine-3-sulfonamide]
> 10000	COc1ncc(F)cc1S(=O)(=O)Nc1ncc(F)c(-c2ccc3c(C(N)=O)n[nH]c3c2F)c1F [Example 3M, 6-(3,5-difluoro-2-((5-fluoro-2-methoxypyridine)-3-sulfonamido)pyridin-4-yl)-7-fluoro-1H-indazole-3-carboxamide]
> 10000	COc1ncccc1S(=O)(=O)Nc1ccnc(-c2ccc3c(-c4ncc[nH]4)n[nH]c3c2F)c1C#N [Example 3G, N-(3-cyano-2-(7-fluoro-3-(1H-imidazol-2-yl)-1H-indazol-6-yl)pyridin-4-yl)-2-methoxypyridine-3-sulfonamide]
< 500	COc1ncc(F)cc1S(=O)(=O)Nc1ccc(F)c(-c2ccc3c(C(=O)N[C@@H]4CCN(C)C4)n[nH]c3c2F)c1F [Example 3AB, 6-(3-((5-fluoro-2-methoxy-pyridine)-3-sulfonamido)-2,6-difluorophenyl)-7-fluoro-N-((R)-1-methylpyrrolidin-3-yl)-1H-indazole-3-carboxamide]
< 500	COc1ncc(F)cc1S(=O)(=O)Nc1cc(F)cc(-c2ccc3c(C(=O)N[C@@H]4CCN(C)C4)n[nH]c3c2F)c1F [Example 3BS, 6-(3-((5-fluoro-2-methoxy-pyridine)-3-sulfonamido)-2,5-difluorophenyl)-7-fluoro-N-((R)-1-methylpyrrolidin-3-yl)-1H-indazole-3-carboxamide]
< 500	COc1ncc(F)cc1S(=O)(=O)Nc1cc(F)cc(-c2ccc3c(C(=O)NCCCO)n[nH]c3c2F)c1F [Example 3AP, 6-(2,5-difluoro-3-((5-fluoro-2-methoxypyridine)-3-sulfon-amido)phenyl)-7-fluoro-N-(3-hydroxypropyl)-1H-indazole-3-carboxamide]
< 500	COc1ncccc1S(=O)(=O)Nc1cccc(-c2ccc3c(-c4ncc[nH]4)n[nH]c3c2F)c1F [Example 3W, N-(2-fluoro-3-(7-fluoro-3-(1H-imidazol-2-yl)-1H-indazol-6-yl)phenyl)-2-methoxypyridine-3-sulfonamide]
500 to 2500	Cc1ncc(F)cc1S(=O)(=O)Nc1cccc(-c2ccc3c(-c4ncc[nH]4)n[nH]c3c2C)c1F [Example 3Y, N-(3-(3-(1H-imidazol-2-yl)-7-methyl-1H-indazol-6-yl)-2-fluorophenyl)-5-fluoro-2-methylpyridine-3-sulfonamide]
< 500	COc1ncc(Cl)cc1S(=O)(=O)Nc1c(F)ccc(-c2ccc3c(-c4ncc[nH]4)n[nH]c3c2F)c1F [Example 3A, 5-chloro-N-(2,6-difluoro-3-(7-fluoro-3-(1H-imidazol-2-yl)-1H-indazol-6-yl)phenyl)-2-methoxypyridine-3-sulfonamide]
500 to 2500	Cc1ccc(S(=O)(=O)Nc2ccc(F)c(-c3ccc4c(C(=O)NCCCO)n[nH]c4c3F)c2F)c(C)n1 [Example 3CP, 6-(3-((2,6-dimethylpyridine)-3-sulfonamido)-2,6-difluorophenyl)-7-fluoro-N-(3-hydroxypropyl)-1H-indazole-3-carboxamide]
< 500	O=S(=O)(Nc1ccc(F)c(-c2ccc3c(-c4ncc[nH]4)n[nH]c3c2F)c1F)c1cc(F)cc(CO)c1Cl [Example 3CH, 2-chloro-N-(2,4-difluoro-3-(7-fluoro-3-(1H-imidazol-2-yl)-1H-indazol-6-yl)phenyl)-5-fluoro-3-(hydroxymethyl)-benzenesulfonamide]
< 500	CN(C)CCCNC(=O)c1n[nH]c2c(F)c(-c3c(F)ccc(NS(=O)(=O)c4cc(F)cc(CO)c4F)c3F)ccc12 [Example 4P]
